Experimental data as given in PubChem BioAssay (NCI).
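Five concentrations, 48 hours, 96-well plates. TGI: total growth inhibition.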

Columns and labels:
Test in all cases: growth of human tumour cells (NCI), 48 h
EKVX NSCLC = test system: EKVX NSCLC
SF-268 CNS = test system: SF-268 CNS
PC-3 prostate = test system: PC-3 prostate
NCI-H522 lung = test system: NCI-H522 lung
NCI-H226 lung = test system: NCI-H226 lung
T-47D breast = test system: T-47D breast
DU-145 prostate = test system: DU-145 prostate
MOLT-4 leukemia = test system: MOLT-4 leukemia
KM12 colon = test system: KM12 colon
NCI-H23 lung = test system: NCI-H23 lung
HCT-15 colon = test system: HCT-15 colon
ACHN renal = test system: ACHN renal
SN12C renal = test system: SN12C renal
MDA-MB-435 = test system: MDA-MB-435
MALME-3M melanoma = test system: MALME-3M melanoma
SK-MEL-5 melanoma = test system: SK-MEL-5 melanoma
OVCAR-4 ovarian = test system: OVCAR-4 ovarian
CCRF-CEM leukemia = test system: CCRF-CEM leukemia
SK-MEL-2 melanoma = test system: SK-MEL-2 melanoma
HT29 colon = test system: HT29 colon
HS 578T breast = test system: HS 578T breast
BT-549 breast = test system: BT-549 breast
HL-60(TB) leukemia = test system: HL-60(TB) leukemia
OVCAR-3 ovarian = test system: OVCAR-3 ovarian
SNB-19 CNS = test system: SNB-19 CNS
HCT-116 colon = test system: HCT-116 colon
HCC-2998 colon = test system: HCC-2998 colon
SF-295 CNS = test system: SF-295 CNS
HOP-92 NSCLC = test system: HOP-92 NSCLC
SR leukemia = test system: SR leukemia
UO-31 renal = test system: UO-31 renal
SNB-75 CNS = test system: SNB-75 CNS
OVCAR-8 ovarian = test system: OVCAR-8 ovarian
MCF7 breast = test system: MCF7 breast
SW-620 colon = test system: SW-620 colon
SF-539 CNS = test system: SF-539 CNS
HOP-62 NSCLC = test system: HOP-62 NSCLC
RPMI-8226 leukemia = test system: RPMI-8226 leukemia
OVCAR-5 ovarian = test system: OVCAR-5 ovarian
LOX IMVI melanoma = test system: LOX IMVI melanoma
COLO 205 colon = test system: COLO 205 colon
NCI-H460 lung = test system: NCI-H460 lung
MDA-MB-231 breast = test system: MDA-MB-231 breast
SK-MEL-28 melanoma = test system: SK-MEL-28 melanoma
M14 melanoma = test system: M14 melanoma
MDA-N = test system: MDA-N
CAKI-1 renal = test system: CAKI-1 renal
786-0 renal = test system: 786-0 renal
NCI/ADR-RES ovarian = test system: NCI/ADR-RES ovarian
A549 NSCLC = test system: A549 NSCLC
UACC-257 melanoma = test system: UACC-257 melanoma
IGROV1 ovarian = test system: IGROV1 ovarian
U251 CNS = test system: U251 CNS
TK-10 renal = test system: TK-10 renal
SK-OV-3 ovarian = test system: SK-OV-3 ovarian
UACC-62 melanoma = test system: UACC-62 melanoma

Question: Which results are given for `Cc1cnc2sn(-c3ccc(Br)cc3)c(=O)c2c1`?
Answer: TGI (EKVX NSCLC): > 100 µM; TGI (SF-268 CNS): > 100 µM; TGI (PC-3 prostate): > 100 µM; TGI (NCI-H522 lung): 16.9 µM; TGI (NCI-H226 lung): > 100 µM; TGI (T-47D breast): 48.4 µM; TGI (DU-145 prostate): > 100 µM; TGI (MOLT-4 leukemia): > 100 µM; TGI (KM12 colon): > 100 µM; TGI (NCI-H23 lung): > 100 µM; TGI (HCT-15 colon): > 100 µM; TGI (ACHN renal): > 100 µM; TGI (SN12C renal): > 100 µM; TGI (MDA-MB-435): > 100 µM; TGI (MALME-3M melanoma): 43.6 µM; TGI (SK-MEL-5 melanoma): > 100 µM; TGI (OVCAR-4 ovarian): 79.3 µM; TGI (CCRF-CEM leukemia): 69.7 µM; TGI (SK-MEL-2 melanoma): > 100 µM; TGI (HT29 colon): 75 µM; TGI (HS 578T breast): 88.1 µM; TGI (BT-549 breast): > 100 µM; TGI (HL-60(TB) leukemia): 49.7 µM; TGI (OVCAR-3 ovarian): 62.7 µM; TGI (SNB-19 CNS): > 100 µM; TGI (HCT-116 colon): > 100 µM; TGI (HCC-2998 colon): > 100 µM; TGI (SF-295 CNS): 97.8 µM; TGI (HOP-92 NSCLC): 68.8 µM; TGI (SR leukemia): > 100 µM; TGI (UO-31 renal): > 100 µM; TGI (SNB-75 CNS): > 100 µM; TGI (OVCAR-8 ovarian): > 100 µM; TGI (MCF7 breast): > 100 µM; TGI (SW-620 colon): 89.6 µM; TGI (SF-539 CNS): > 100 µM; TGI (HOP-62 NSCLC): 81.5 µM; TGI (RPMI-8226 leukemia): > 100 µM; TGI (OVCAR-5 ovarian): > 100 µM; TGI (LOX IMVI melanoma): > 100 µM; TGI (COLO 205 colon): 49.3 µM; TGI (NCI-H460 lung): > 100 µM; TGI (MDA-MB-231 breast): > 100 µM; TGI (SK-MEL-28 melanoma): > 100 µM; TGI (M14 melanoma): > 100 µM; TGI (MDA-N): > 100 µM; TGI (CAKI-1 renal): 30.7 µM; TGI (786-0 renal): > 100 µM; TGI (NCI/ADR-RES ovarian): > 100 µM; TGI (A549 NSCLC): > 100 µM; TGI (UACC-257 melanoma): > 100 µM; TGI (IGROV1 ovarian): > 100 µM; TGI (U251 CNS): > 100 µM; TGI (TK-10 renal): > 100 µM; TGI (SK-OV-3 ovarian): > 100 µM; TGI (UACC-62 melanoma): > 100 µM
